{"source": "patent US9884130B2", "about": "“Compositions for delivery of oral comfort sensations” (The Procter & Gamble Company, priority 2013, dated 2018)", "key": {"[1]": {"conditions": "concentration level where the cooling effect can be clearly recognized; cited from earlier work"}, "mouse TREK-1 (mTREK-1t)": {"molecular_target": "T1, mouse TREK-1 (mTREK-1t) (Mus musculus, UniProt P97438)", "T1 construct": "(mTREK-1t) by Capital Biosciences (Rockville, Md.)", "T1 sequence (P97438 with tags, fused parts or gaps limits assumed)": "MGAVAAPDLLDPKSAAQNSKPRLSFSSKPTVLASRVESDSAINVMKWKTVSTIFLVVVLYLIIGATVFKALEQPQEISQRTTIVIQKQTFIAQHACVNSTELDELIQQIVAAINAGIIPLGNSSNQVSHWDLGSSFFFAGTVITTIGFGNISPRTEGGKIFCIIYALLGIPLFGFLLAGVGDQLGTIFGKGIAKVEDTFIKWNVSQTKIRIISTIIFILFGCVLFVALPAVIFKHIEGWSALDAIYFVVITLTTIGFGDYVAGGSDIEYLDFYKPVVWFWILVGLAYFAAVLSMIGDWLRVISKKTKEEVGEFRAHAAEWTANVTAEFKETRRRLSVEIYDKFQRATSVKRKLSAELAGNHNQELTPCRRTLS", "experiment": "FLIPR membrane potential assay in HEK-293 cells stably transfected with mTREK-1t", "type": "cell-based"}, "[2]": {"conditions": "HEK293, sample concentration 50 μM, relative to 50 mM potassium nitrate, read-out: Fluorescence per Sample concentration (percent activity relative to potassium nitrate)"}, "[3]": {"conditions": "HEK293, sample concentration 100 μM, relative to 50 mM potassium nitrate, read-out: Fluorescence per Sample concentration (percent activity relative to potassium nitrate)"}, "[4]": {"conditions": "HEK293, sample concentration 200 μM, relative to 50 mM potassium nitrate, read-out: Fluorescence per Sample concentration (percent activity relative to potassium nitrate)"}, "[5]": {"conditions": "HEK293, read-out: Activity Level (percentage of activity relative to 100% with 50 mM potassium nitrate)"}, "[6]": {"conditions": "HEK293, read-out: Fluorescence per Sample concentration (percent activity relative to potassium nitrate)"}}, "note": "Where two headings read alike, the source gives them in different places."}
{"compound": "CC(C)[C@@H]1CC[C@@H](C)C[C@H]1O", "note": "[L- Menthol]", "values": [{"measurement": "cooling threshold", "setting": "[1]", "result": "about 800 ppb"}]}
{"compound": "CCCCCC(C)CCC(=O)O", "note": "(stereo not drawn) [4-Methylnonanoic acid]", "values": [{"measurement": "activation at 50 µM", "setting": "mouse TREK-1 (mTREK-1t); [2]", "result": 24.8, "unit": "%"}, {"measurement": "activation at 100 µM", "setting": "mouse TREK-1 (mTREK-1t); [3]", "result": 38.5, "unit": "%"}, {"measurement": "activation at 200 µM", "setting": "mouse TREK-1 (mTREK-1t); [4]", "result": 79.9, "unit": "%"}]}
{"compound": "CC(C)CC=C(C=O)C(C)C", "note": "[2-Isopropyl-5-methyl-2-hexenal]", "values": [{"measurement": "activation at 50 µM", "setting": "mouse TREK-1 (mTREK-1t); [2]", "result": 11.1, "unit": "%"}, {"measurement": "activation at 100 µM", "setting": "mouse TREK-1 (mTREK-1t); [3]", "result": 21.1, "unit": "%"}, {"measurement": "activation at 200 µM", "setting": "mouse TREK-1 (mTREK-1t); [4]", "result": 46.3, "unit": "%"}, {"measurement": "activation at 400 µM", "setting": "mouse TREK-1 (mTREK-1t); HEK293, sample concentration 400 μM, relative to 50 mM potassium nitrate, read-out: Fluorescence per Sample concentration (percent activity relative to potassium nitrate)", "result": "≥ 50", "unit": "%"}]}
{"compound": "CC(C)[C@@H]1CC[C@@H](C)C[C@@H]1O", "note": "[Sample 1-neomenthol, 1-neomenthol]", "values": [{"measurement": "cooling threshold", "setting": "[1]", "result": "about 3,000 ppb"}]}
{"compound": "CCCCCCCCOC(=O)CCCCC(=O)OCCCCCCCC", "note": "[Dioctyl Adipate]", "values": [{"measurement": "activity on TREK-1 compared with potassium nitrate", "setting": "mouse TREK-1 (mTREK-1t)", "result": "higher activity on TREK-1 than potassium nitrate"}, {"measurement": "activation at 0.0005 %", "setting": "mouse TREK-1 (mTREK-1t); [5]", "result": 8.93, "unit": "%"}, {"measurement": "activation at 0.001 %", "setting": "mouse TREK-1 (mTREK-1t); [5]", "result": 13.7, "unit": "%"}, {"measurement": "activation at 0.0021 %", "setting": "mouse TREK-1 (mTREK-1t); [5]", "result": 18.1, "unit": "%"}, {"measurement": "activation at 0.0042 %", "setting": "mouse TREK-1 (mTREK-1t); [5]", "result": 22.9, "unit": "%"}, {"measurement": "activation at 0.0083 %", "setting": "mouse TREK-1 (mTREK-1t); [5]", "result": 38.9, "unit": "%"}, {"measurement": "activation at 0.0167 %", "setting": "mouse TREK-1 (mTREK-1t); [5]", "result": "> 70", "unit": "%"}, {"measurement": "activation at 0.033 %", "setting": "mouse TREK-1 (mTREK-1t); [5]", "result": 132, "unit": "%"}]}
{"compound": "CCCCC(CC)CCC(=O)O", "note": "(stereo not drawn) [4-Ethyloctanoic Acid]", "values": [{"measurement": "activation at 50 µM", "setting": "mouse TREK-1 (mTREK-1t); [2]", "result": 31, "unit": "%"}, {"measurement": "activation at 100 µM", "setting": "mouse TREK-1 (mTREK-1t); [3]", "result": 44.6, "unit": "%"}, {"measurement": "activation at 200 µM", "setting": "mouse TREK-1 (mTREK-1t); [4]", "result": 77.3, "unit": "%"}]}
{"compound": "CCCCCCCCC1CCC(=O)O1", "note": "(stereo not drawn) [gamma-Dodecalactone]", "values": [{"measurement": "Fluorescence per Sample concentration (percent activity relative to potassium nitrate)", "setting": "mouse TREK-1 (mTREK-1t); sample concentration 50 μM, relative to 50 mM potassium nitrate", "result": 1.77, "unit": "%"}, {"measurement": "Fluorescence per Sample concentration (percent activity relative to potassium nitrate)", "setting": "mouse TREK-1 (mTREK-1t); sample concentration 100 μM, relative to 50 mM potassium nitrate", "result": 3.41, "unit": "%"}, {"measurement": "Fluorescence per Sample concentration (percent activity relative to potassium nitrate)", "setting": "mouse TREK-1 (mTREK-1t); sample concentration 200 μM, relative to 50 mM potassium nitrate", "result": 18.74, "unit": "%"}]}
{"compound": "CCCCC(CC)COP(=O)(O)OCC(CC)CCCC", "note": "(stereo not drawn) [Bis (2-ethyl hexyl) Phosphate]", "values": [{"measurement": "activity on TREK-1 compared with potassium nitrate", "setting": "mouse TREK-1 (mTREK-1t); 0.033% Sample concentration vs 50 mM (0.505%) potassium nitrate", "result": "higher activity on TREK-1 than potassium nitrate"}, {"measurement": "Activity Level (percentage of activity relative to 100% with 50 mM potassium nitrate)", "setting": "mouse TREK-1 (mTREK-1t); Sample Conc. 0.0005%", "result": 5.92, "unit": "%"}, {"measurement": "Activity Level (percentage of activity relative to 100% with 50 mM potassium nitrate)", "setting": "mouse TREK-1 (mTREK-1t); Sample Conc. 0.0010%", "result": 13.39, "unit": "%"}, {"measurement": "Activity Level (percentage of activity relative to 100% with 50 mM potassium nitrate)", "setting": "mouse TREK-1 (mTREK-1t); Sample Conc. 0.0021%", "result": 20.49, "unit": "%"}, {"measurement": "Activity Level (percentage of activity relative to 100% with 50 mM potassium nitrate)", "setting": "mouse TREK-1 (mTREK-1t); Sample Conc. 0.0042%", "result": 26.65, "unit": "%"}, {"measurement": "Activity Level (percentage of activity relative to 100% with 50 mM potassium nitrate)", "setting": "mouse TREK-1 (mTREK-1t); Sample Conc. 0.0083%", "result": 43.09, "unit": "%"}, {"measurement": "Activity Level (percentage of activity relative to 100% with 50 mM potassium nitrate)", "setting": "mouse TREK-1 (mTREK-1t); Sample Conc. 0.0167%", "result": 84.83, "unit": "%"}, {"measurement": "Activity Level (percentage of activity relative to 100% with 50 mM potassium nitrate)", "setting": "mouse TREK-1 (mTREK-1t); Sample Conc. 0.0330%", "result": 109.75, "unit": "%"}]}
{"compound": "Oc1ccccc1-c1ccccc1", "note": "[2-Phenylphenol]", "values": [{"measurement": "activation at 50 µM", "setting": "mouse TREK-1 (mTREK-1t); [6]", "result": 0.35, "unit": "%"}, {"measurement": "activation at 100 µM", "setting": "mouse TREK-1 (mTREK-1t); [6]", "result": 0.85, "unit": "%"}, {"measurement": "activation at 200 µM", "setting": "mouse TREK-1 (mTREK-1t); [6]", "result": 12.9, "unit": "%"}, {"measurement": "activation at 400 µM", "setting": "mouse TREK-1 (mTREK-1t); [6]", "result": "≥ 50", "unit": "%"}]}
{"compound": "L-Carvone", "values": [{"measurement": "percentage of TREK-1 activity relative to potassium nitrate", "setting": "mouse TREK-1 (mTREK-1t); Sample Concentration 0.0005%", "result": 1.85, "unit": "%"}, {"measurement": "percentage of TREK-1 activity relative to potassium nitrate", "setting": "mouse TREK-1 (mTREK-1t); Sample Concentration 0.0010%", "result": 0.97, "unit": "%"}, {"measurement": "percentage of TREK-1 activity relative to potassium nitrate", "setting": "mouse TREK-1 (mTREK-1t); Sample Concentration 0.0021%", "result": 2.7, "unit": "%"}, {"measurement": "percentage of TREK-1 activity relative to potassium nitrate", "setting": "mouse TREK-1 (mTREK-1t); Sample Concentration 0.0042%", "result": 2.03, "unit": "%"}, {"measurement": "percentage of TREK-1 activity relative to potassium nitrate", "setting": "mouse TREK-1 (mTREK-1t); Sample Concentration 0.0083%", "result": 9.51, "unit": "%"}, {"measurement": "percentage of TREK-1 activity relative to potassium nitrate", "setting": "mouse TREK-1 (mTREK-1t); Sample Concentration 0.0167%", "result": 24.1, "unit": "%"}, {"measurement": "percentage of TREK-1 activity relative to potassium nitrate", "setting": "mouse TREK-1 (mTREK-1t); Sample Concentration […]", "result": 98.65, "unit": "%"}]}
